Measured values from patent US8198279B2, “Pyrido[2,3-b]pyrazin-8-substituted compounds and their use” (Institute of Cancer Research: Royal Cancer Hospital (The), priority 2007, dated 2012).

Key:
B-RAF = molecular target: T1, B-RAF (Homo sapiens, UniProt P15056, V600E); assay: DELFIA Kinase Assay; format: biochemical; details: 100 μM ATP, GST-MEK substrate
T1 construct: made in house
How it was run: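 Recombinant B-RAF (V600E) with GST-MEK substrate was preincubated with compound for 10 min at room temperature, then reacted with 100 μM ATP for 45 min on milk-preblocked wells, with antibody detection by DELFIA europium fluorescence. Response is taken as % of DMSO control after empty-vector blank subtraction; IC50 is from a variable-slope sigmoidal fit, mean of usually three independent runs.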

WM266.4 melanoma cells = assay: SRB Cell Proliferation Assay (SRB GI50); format: cell-based; details: Homo sapiens, WM 266-4, 144 h, 6 days growth
Procedure: Biological Methods —SRB Cell Proliferation Assay (SRB GI50)
Cultures of WM266.4 melanoma cells are routinely cultured in DMEM/10% foetal bovine serum, at 37° C., in 5% CO2 water saturated atmosphere. Cultures are maintained in exponential growth phase by sub-culturing before having become confluent (3-5 day intervals). Single cell suspensions are prepared by harvesting an 80 cm^2 tissue culture flask with 5 mL commercial trypsin EDTA. After 5 minutes, the detached cells are mixed with 5 mL fully complemented culture medium and centrifugally pelleted (1000 rpm for 7 minutes). After aspirating the supernatant, the cell pellet is re-suspended in 10 mL fresh medium and the cells fully disaggregated by drawing the whole volume up/down 5 times through a 19-gauge needle. The concentration of the cells is determined using a haemocytometer (1/10 dilution). A suitable volume to give at least a 2-fold excess for the number of tests being conducted, typically 100-200 mL, is prepared by diluting the cell suspension to 10,000/mL, and 100 μL/well dispensed into 96 well plates using a programmable 8-channel peristaltic pump, giving 1000 cells/well, leaving column 12 blank. The plates are returned to the incubator for 24 hours to allow the cells to re-attach.
The compounds being tested are prepared at 20 mM in dimethylsulphoxide. Aliquots (200 μL) are diluted into 20 mL culture medium giving 200 μM, and 10 serial dilutions of 3× performed by transferring 5 mL to 10 mL. Aliquots (100 μL) of each dilution are added to the wells, using an 8-channel pipettor, thus performing a final further 2× dilution, and giving doses ranging from 100 μM to 0.005 μM. Column 11 receives plain culture medium only. Each compound is tested in quadruplicate, each replicate being the average of four wells, and two plates per compound.
After a further 6 days growth, the plates are emptied, and the cells are fixed in 10% trichloroacteic acid for 10 minutes on ice. After thorough rinsing in running tap water, the plates are dried, and stained by adding 50 μL of a solution of 0.1% sulphorhodamine-B in 1% acetic acid, for 10 minutes at room temperature. The stain is poured out and the plates thoroughly rinsed under a stream of 1% acetic acid, thus removing unbound stain, and dried. The bound stain is taken into solution by addition of 150 μL Tris buffer pH 8, followed by 10 minutes on a plate-shaker (approximately 500 rpm). The absorbance at 540 nm in each well (being proportional to the number of cells present) is determined using a plate reader.
After averaging the results in rows A-D and E-H, the blank value (row 12) is subtracted, and results expressed as percentage of the untreated value (row 11). […] The GI50 generated by this procedure is the concentration of the drug that produces a percentage control A540 midway between the saturation, and zero-effect plateaus.

pERK = assay: Cell Based Phospho-ERK Assay; details: 6 h, 6 hours incubation with test compound
Procedure: Biological Methods—Cell Based Phosho-ERK Assay
Compounds were assessed using a cell-based assay which was performed according to the following protocol.
Plate out 16,000 cells/well in 99 μL medium in a 96-well plate.
• 1. Add 1 μL inhibitor to the cells (total […] solution). • 2. Incubate the cells with test compound for 6 hours at 37° C. • 3. Aspirate off the solution from all of the wells. • 4. Fixate the cells with 100 μL 4% formaldehyde/0.25% Triton X-100 PBS per well. • 5. Incubate the plate for 1 hour at 4° C. • 6. Aspirate off the fixing solution and add 300 μL TBS per well. • 7. Leave the plate overnight at 4° C. Day 2: • 1. Wash the plate 2× with 200 μL PBS per well. • 2. Block with 100 μL 5% dried milk in TBS. • 3. Incubate the plate for 20 minutes at 37° C. • 4. Wash the plate 2× with 0.1% tween/H2O. • 5. Add 50 μL of 3 μg/mL primary antibody pERK (Sigma M8159), diluted in 5% milk powder/TBS, to each well. • 6. Incubate the plate for 2 hours at 37° C. • 7. Wash the plate 3× with 0.1% tween/H2O. • 8. Add 50 μL of 0.45 μg/mL secondary Europium-labelled anti-mouse antibody (Perkin Elmer) to each well. • 9. Incubate the plate for 1 hour at 37° C. • 10. Wash the plate 3× with 0.1% tween/H2O. • 11. Add 100 μL enhancement solution (Perkin Elmer) to each well. • 12. Leave the plate for approximately 10 minutes at room temperature before gently shaking the plate. • 13. Read Europium Time Resolved Fluorescence in Victor2. • 14. Wash the plate 2× with 0.1% tween/H2O. • 15. Measure the protein concentration with BCA (Sigma) by adding 200 μL of solution per well. • 16. Incubate the plate for 30 minutes at 37° C. • 17. Read absorbance levels at 570 nm in a plate reader.
Note that Europium counts are normalised for protein levels by dividing counts by absorbance.
Values for the blank (no cells) are subtracted from all values. The DMSO controls are set as 100% activity and assay points (the response) are calculated as a percentage of the DMSO control. Data are plotted using Graphpad Prism software and a non-linear regression line is calculated using a variable slope sigmoidal dose-response equation (Y=Bottom+(Top−Bottom)/(1+10^((LogEC50−X)*HillSlope)) where X is the logarithm of concentration. Y is the response). The IC50 generated by this procedure is the concentration of the drug that produces a percentage control fluorescence value midway between the saturation, and zero-effect plateaus. Three independent assays are usually performed and the mean IC50 is reported.

T1 sequence (P15056 whole entry V600E): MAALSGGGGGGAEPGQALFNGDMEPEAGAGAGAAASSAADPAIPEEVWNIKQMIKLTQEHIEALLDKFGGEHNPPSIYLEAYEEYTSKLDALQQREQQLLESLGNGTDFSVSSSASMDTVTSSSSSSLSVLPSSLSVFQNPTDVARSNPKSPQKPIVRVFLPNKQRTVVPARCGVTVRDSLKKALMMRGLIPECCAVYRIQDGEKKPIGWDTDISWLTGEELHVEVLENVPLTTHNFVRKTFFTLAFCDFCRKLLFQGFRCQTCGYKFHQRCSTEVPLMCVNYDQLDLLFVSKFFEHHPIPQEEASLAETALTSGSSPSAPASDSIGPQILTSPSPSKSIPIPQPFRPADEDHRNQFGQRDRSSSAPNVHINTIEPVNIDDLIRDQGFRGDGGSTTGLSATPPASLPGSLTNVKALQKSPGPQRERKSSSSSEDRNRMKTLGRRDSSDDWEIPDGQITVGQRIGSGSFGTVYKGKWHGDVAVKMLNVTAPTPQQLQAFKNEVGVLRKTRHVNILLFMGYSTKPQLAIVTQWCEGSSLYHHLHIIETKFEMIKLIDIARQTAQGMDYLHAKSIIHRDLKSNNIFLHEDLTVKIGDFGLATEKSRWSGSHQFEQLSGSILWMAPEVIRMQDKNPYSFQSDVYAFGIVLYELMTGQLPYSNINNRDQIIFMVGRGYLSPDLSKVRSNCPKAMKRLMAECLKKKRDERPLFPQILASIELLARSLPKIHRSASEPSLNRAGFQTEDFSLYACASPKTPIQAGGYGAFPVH

IC50 (B-RAF) [nM]	GI50 (WM266.4 melanoma cells) [nM]	IC50 (pERK) [nM]	Structure (SMILES)
< 100	< 1000	< 1000	COc1ccc(-n2nc(C(C)(C)C)cc2NC(=O)Nc2ccc(Oc3ccnc4[nH]c(=O)c(C)nc34)cc2SC)cn1 [AA-064, 1-(3-tert-butyl-1-(6-methoxypyridin-3-yl)-1H-pyrazol-5-yl)-3-(4-(2-methyl-3-oxo-3,4-dihydropyrido[2,3-b]pyrazin-8-yloxy)-2-(methylthio)phenyl)urea]
< 100	< 1000	< 1000	CSc1cc(Oc2ccnc3[nH]c(=O)c(C)nc23)ccc1NC(=O)Nc1cc(C(C)(C)C)nn1-c1ccccc1 [AA-065, 1-(3-tert-butyl-1-phenyl-1H-pyrazol-5-yl)-3-(4-(2-methyl-3-oxo-3,4-dihydropyrido[2,3-b]pyrazin-8-yloxy)-2-(methylthio)phenyl)urea]
100 to 1000	< 1000	< 1000	CSc1cc(Oc2ccnc3ncc(=O)[nH]c23)ccc1NC(=O)Nc1cc(C(C)(C)C)nn1-c1ccccc1 [AA-066, 1-(3-tert-butyl-1-phenyl-1H-pyrazol-5-yl)-3-(2-(methylthio)-4-(2-oxo-1,2-dihydropyrido[2,3-b]pyrazin-8-yloxy)phenyl)urea]
< 100	< 1000	< 1000	CSc1cc(Oc2ccnc3[nH]c(=O)cnc23)ccc1NC(=O)Nc1cc(C(C)(C)C)nn1-c1ccccc1 [AA-067, 1-(3-tert-butyl-1-phenyl-1H-pyrazol-5-yl)-3-(2-(methylthio)-4-(3-oxo-3,4-dihydropyrido[2,3-b]pyrazin-8-yloxy)phenyl)urea]
< 100	1000 to 10000	1000 to 10000	O=C(Nc1cncc(C(F)(F)F)c1)Nc1ccc(Oc2ccnc3[nH]c(=O)cnc23)cc1F [AA-069, 1-(2-fluoro-4-(3-oxo-3,4-dihydropyrido[2,3-b]pyrazin-8-yloxy)phenyl)-3-(5-(trifluoromethyl)pyridin-3-yl)urea]
100 to 1000	< 1000	< 1000	CC(C)(C)c1cc(NC(=O)Nc2ccc(Oc3ccnc4nc(N5CCOCC5)cnc34)cc2F)n(-c2ccccc2)n1 [AA-071, 1-(3-Tert-butyl-1-phenyl-1H-pyrazol-5-yl)-3-(2-fluoro-4-(3-morpholinopyrido[3,2-b]pyrazin-8-yloxy)phenyl)urea]
< 100	1000 to 10000	< 1000	O=C(Nc1ccc(Oc2ccnc3[nH]c(=O)c(=O)[nH]c23)cc1F)Nc1cc(C(F)(F)F)ccc1F [AA-072, 1-(4-(2,3-Dioxo-1,2,3,4-tetrahydropyrido[3,2-b]pyrazin-8-yloxy)-2-fluorophenyl)-3-(2-fluoro-5-(trifluoromethyl)phenyl)urea]
< 100	< 1000	< 1000	Cc1ccc(-n2nc(C(C)(C)C)cc2NC(=O)Nc2ccc(Oc3ccnc4[nH]c(=O)c(=O)[nH]c34)cc2F)cc1 [AA-074, 1-(3-Tert-butyl-1-p-tolyl-1H-pyrazol-5-yl)-3-(4-(2,3-dioxo-1,2,3,4-tetrahydropyrido[3,2-b]pyrazin-8-yloxy)-2-fluorophenyl)urea]
< 100	< 1000	< 1000	CC(C)(C)c1cc(NC(=O)Nc2cccc(Oc3ccnc4[nH]c(=O)cnc34)c2)n(-c2ccccc2)n1 [AA-075, 1-(3-tert-butyl-1-phenyl-1H-pyrazol-5-yl)-3-(3-(3-oxo-3,4-dihydropyrido[2,3-b]pyrazin-8-yloxy)phenyl)urea]
100 to 1000	1000 to 10000	1000 to 10000	CC(C)(C)c1cc(NC(=O)Nc2cccc(Oc3ccnc4ncc(=O)[nH]c34)c2)n(-c2ccccc2)n1 [AA-076, 1-(3-tert-butyl-1-phenyl-1H-pyrazol-5-yl)-3-(3-(2-oxo-1,2-dihydropyrido[2,3-b]pyrazin-8-yloxy)phenyl)urea]
100 to 1000	< 1000	< 1000	Cc1ccc(-n2nc(C(C)(C)C)cc2NC(=O)Nc2ccc(Oc3ccnc4[nH]c(=O)c(N)nc34)c3ccccc23)cc1 [AA-077, 1-(4-(2-amino-3-oxo-3,4-dihydropyrido[2,3-b]pyrazin-8-yloxy)naphthalen-1-yl)-3-(3-tert-butyl-1-p-tolyl-1H-pyrazol-5-yl)urea]
100 to 1000	< 1000	< 1000	Cc1ccc(-n2nc(C(C)(C)C)cc2NC(=O)Nc2cccc(Oc3ccnc4[nH]c(=O)c(C)nc34)c2)cc1 [AA-078, 1-(3-tert-butyl-1-p-tolyl-1H-pyrazol-5-yl)-3-(3-(2-methyl-3-oxo-3,4-dihydropyrido[2,3-b]pyrazin-8-yloxy)phenyl)urea]
< 100	< 1000	< 1000	Nc1nc2nccc(Oc3ccc(NC(=O)Nc4cc(C(F)(F)F)ccc4F)c4ccccc34)c2[nH]c1=O [AA-079, 1-(4-(3-amino-2-oxo-1,2-dihydropyrido[2,3-b]pyrazin-8-yloxy)naphthalen-1-yl)-3-(2-fluoro-5-(trifluoromethyl)phenyl)urea]
< 100	< 1000	< 1000	CC(C)(C)c1cc(NC(=O)Nc2ccc(Oc3ccnc4[nH]c(=O)c(N)nc34)c3ccccc23)n(-c2ccccc2)n1 [AA-080, 1-(4-(2-amino-3-oxo-3,4-dihydropyrido[2,3-b]pyrazin-8-yloxy)naphthalen-1-yl)-3-(3-tert-butyl-1-phenyl-1H-pyrazol-5-yl)urea]
100 to 1000	< 1000	< 1000	CC(C)(C)c1cc(NC(=O)Nc2ccc(Oc3ccnc4nc(N)c(=O)[nH]c34)c3ccccc23)n(-c2ccccc2)n1 [AA-081, 1-(4-(3-amino-2-oxo-1,2-dihydropyrido[2,3-b]pyrazin-8-yloxy)naphthalen-1-yl)-3-(3-tert-butyl-1-phenyl-1H-pyrazol-5-yl)urea]
100 to 1000	1000 to 10000	1000 to 10000	O=C(Nc1cc(C(F)(F)F)ccc1F)Nc1ccc(Oc2ccnc3nc(C(F)(F)F)c(=O)[nH]c23)c2ccccc12 [AA-083, 1-(2-fluoro-5-(trifluoromethyl)phenyl)-3-(4-(2-oxo-3-(trifluoromethyl)-1,2-dihydropyrido[2,3-b]pyrazin-8-yloxy)naphthalen-1-yl)urea]
